Values quoted from earlier work in patent US20160335412A1, “SYSTEMS AND METHODS FOR PREDICTING AND ADJUSTING THE DOSAGE OF MEDICINES IN INDIVIDUAL PATIENTS” (priority 2013, published 2016).

SMILES: Cc1cc2c(s1)Nc1ccccc1N=C2N1CCN(C)CC1 [olanzapine]
- 'therapeutic range' of plasma drug concentrations (has been established, treatment of schizophrenia): 20 to 80 ng/mL

SMILES: Cn1c(=O)c2[nH]cnc2n(C)c1=O [theophylline]
- 'therapeutic range' of plasma concentrations (documented in the literature, lower limit = no response in most patients, upper limit = toxicity in most): 5-10 micrograms per ml plasma
